According to ChEMBL document CHEMBL3627699, “Design, synthesis and biological evaluation of 3-aryl-rhodanine benzoic acids as anti-apoptotic protein Bcl-2 inhibitors” (Bioorg Med Chem Lett, 2015):

The compounds below were run against T1, Apoptosis regulator Bcl-2 (Homo sapiens, UniProt P10415) (assay: Inhibition of Bcl-2 (unknown origin) at 100 uM by fluorescence polarization assay).
T1 sequence (P10415 whole entry): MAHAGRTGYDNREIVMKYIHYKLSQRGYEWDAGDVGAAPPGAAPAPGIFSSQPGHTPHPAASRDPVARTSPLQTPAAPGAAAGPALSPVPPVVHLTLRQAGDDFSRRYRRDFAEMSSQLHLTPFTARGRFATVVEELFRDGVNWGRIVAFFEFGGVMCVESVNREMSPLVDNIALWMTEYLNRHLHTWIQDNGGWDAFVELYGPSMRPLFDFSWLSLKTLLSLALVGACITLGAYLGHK

inhibition	SMILES
18%	O=C(O)c1ccc(/C=C2\SC(=S)N(c3ccccc3)C2=O)cc1

The compounds below were run against T1, Apoptosis regulator Bcl-2 (assay: Inhibition of Bcl-2 (unknown origin) by fluorescence polarization assay).

SMILES	Ki
Cc1ccc(N2C(=O)/C(=C/c3ccc(OCc4ccc(C(=O)O)cc4)cc3)SC2=S)cc1	> 10 µM
O=C(O)c1ccc(COc2cccc(/C=C3\SC(=S)N(c4ccc([N+](=O)[O-])cc4)C3=O)c2)cc1	> 10 µM
O=C(O)c1ccc(COc2ccc(/C=C3\SC(=S)N(c4cccc(C(F)(F)F)c4)C3=O)cc2)cc1	> 10 µM
O=C(Nc1ccc(O)c(C(=O)O)c1)c1ccc(/C=C2\SC(=S)N(c3ccc([N+](=O)[O-])cc3)C2=O)cc1	> 10 µM
O=C(Nc1ccc(O)c(C(=O)O)c1)c1ccc(/C=C2\SC(=S)N(c3ccccc3)C2=O)cc1	> 10 µM
O=C(O)c1ccc(COc2cccc(/C=C3\SC(=S)N(c4ccccc4)C3=O)c2)cc1	> 10 µM
O=C(O)c1ccc(COc2ccc(/C=C3\SC(=S)N(c4ccc(F)cc4)C3=O)cc2)cc1	> 10 µM
CC(=O)c1ccc(N2C(=O)/C(=C/c3ccc(OCc4ccc(C(=O)O)cc4)cc3)SC2=S)cc1	> 10 µM
O=C(COc1ccc(/C=C2\SC(=S)N(c3ccccc3)C2=O)cc1)Nc1ccc(C(=O)O)cc1	> 10 µM
Cc1ccc(N2C(=O)/C(=C/c3ccc(OCC(=O)Nc4ccc(C(=O)O)cc4)cc3)SC2=S)cc1	> 10 µM
O=C(O)c1ccc(COc2ccc(/C=C3\SC(=S)N(c4ccccc4)C3=O)cc2)cc1	> 10 µM
O=C(O)c1ccc(COc2ccc(/C=C3\SC(=S)N(c4ccc(Cl)cc4)C3=O)cc2)cc1	> 10 µM
Cc1ccccc1N1C(=O)/C(=C/c2ccc(OCC(=O)Nc3ccc(C(=O)O)cc3)cc2)SC1=S	> 10 µM
O=C(O)c1ccc(COc2ccc(/C=C3\SC(=S)N(c4c(F)cccc4F)C3=O)cc2)cc1	> 10 µM
Cc1cccc(N2C(=O)/C(=C/c3ccc(OCc4ccc(C(=O)O)cc4)cc3)SC2=S)c1	> 10 µM

Continued, values first:

Ki	SMILES
1.6 µM	COc1ccccc1N1C(=O)/C(=C/c2cccc(OCc3ccc(C(=O)O)cc3)c2)SC1=S
> 10 µM	Cc1cccc(N2C(=O)/C(=C/c3ccc(OCC(=O)Nc4ccc(C(=O)O)cc4)cc3)SC2=S)c1
> 10 µM	O=C(COc1ccc(/C=C2\SC(=S)N(c3ccc([N+](=O)[O-])cc3)C2=O)cc1)Nc1ccc(C(=O)O)cc1
> 10 µM	O=C(O)c1ccc(COc2ccc(/C=C3\SC(=S)N(c4ccc([N+](=O)[O-])cc4)C3=O)cc2)cc1
7.6 µM	Cc1cccc(C)c1N1C(=O)/C(=C/c2ccc(OCC(=O)Nc3ccc(C(=O)O)cc3)cc2)SC1=S
> 10 µM	O=C(O)c1ccc(COc2ccc(/C=C3\SC(=S)N(Cc4ccc(F)cc4)C3=O)cc2)cc1
10 µM	COc1ccccc1N1C(=O)/C(=C/c2ccc(OCC(=O)Nc3ccc(C(=O)O)cc3)cc2)SC1=S
4.3 µM	O=C(O)c1ccc(COc2ccc(/C=C3\SC(=S)N(c4ccc(I)cc4)C3=O)cc2)cc1
3.1 µM	O=C(O)c1ccc([N+](=O)[O-])c(COc2ccc(/C=C3\SC(=S)N(c4ccc([N+](=O)[O-])cc4)C3=O)cc2)c1
0.5 µM	Cc1ccc(S(=O)(=O)NC(=O)[C@H](Cc2ccccc2)N2C(=O)/C(=C/c3ccc(-c4ccccc4)cc3)SC2=S)cc1
> 10 µM	COc1ccc(N2C(=O)/C(=C/c3ccc(OCc4ccc(C(=O)O)cc4)cc3)SC2=S)cc1
> 10 µM	O=C(O)c1ccc(/C=C2\SC(=S)N(c3ccccc3)C2=O)cc1
9 µM	O=C(O)c1ccc([N+](=O)[O-])c(COc2ccc(/C=C3\SC(=S)N(c4ccccc4)C3=O)cc2)c1
0.61 µM	O=C(O)c1ccc(COc2ccc(/C=C3\SC(=S)N(c4ccc(Br)cc4)C3=O)cc2)cc1
2 µM	COc1ccccc1N1C(=O)/C(=C/c2ccc(OCc3ccc(C(=O)O)cc3)cc2)SC1=S
3.1 µM	Cc1ccccc1N1C(=O)/C(=C/c2cccc(OCc3ccc(C(=O)O)cc3)c2)SC1=S
9.6 µM	O=C(O)c1ccc(COc2ccc(/C=C3\SC(=S)N(c4cccc([N+](=O)[O-])c4)C3=O)cc2)cc1
0.9 µM	Cc1cccc(C)c1N1C(=O)/C(=C/c2ccc(OCc3ccc(C(=O)O)cc3)cc2)SC1=S

What follows are compounds tested against Bcl-2-like protein 1 (Homo sapiens, UniProt Q07817) (assay: Inhibition of Bcl-xL (unknown origin) by fluorescence polarization assay).
Sequence of Bcl-2-like protein 1 (Q07817 whole entry): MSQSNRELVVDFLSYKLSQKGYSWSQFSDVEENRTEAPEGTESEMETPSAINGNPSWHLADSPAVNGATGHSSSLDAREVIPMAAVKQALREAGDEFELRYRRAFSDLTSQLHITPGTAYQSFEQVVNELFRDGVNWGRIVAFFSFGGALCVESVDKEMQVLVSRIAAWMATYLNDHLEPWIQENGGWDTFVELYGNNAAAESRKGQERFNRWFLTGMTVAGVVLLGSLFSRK

Ki	SMILES
> 10 µM	COc1ccccc1N1C(=O)/C(=C/c2cccc(OCc3ccc(C(=O)O)cc3)c2)SC1=S
> 10 µM	O=C(O)c1ccc(COc2ccc(/C=C3\SC(=S)N(c4ccc(I)cc4)C3=O)cc2)cc1
0.57 µM	Cc1ccc(S(=O)(=O)NC(=O)[C@H](Cc2ccccc2)N2C(=O)/C(=C/c3ccc(-c4ccccc4)cc3)SC2=S)cc1
> 10 µM	O=C(O)c1ccc(COc2ccc(/C=C3\SC(=S)N(c4ccc(Br)cc4)C3=O)cc2)cc1
> 10 µM	COc1ccccc1N1C(=O)/C(=C/c2ccc(OCc3ccc(C(=O)O)cc3)cc2)SC1=S
> 10 µM	Cc1ccccc1N1C(=O)/C(=C/c2cccc(OCc3ccc(C(=O)O)cc3)c2)SC1=S
3.9 µM	Cc1cccc(C)c1N1C(=O)/C(=C/c2ccc(OCc3ccc(C(=O)O)cc3)cc2)SC1=S

SMILES	Ki
Cc1cc2c(C(C)C)c(O)c(O)c(C=O)c2c(O)c1-c1c(C)cc2c(C(C)C)c(O)c(O)c(C=O)c2c1O [GOSSYPOL]	0.64 µM

Each compound was assayed against Induced myeloid leukemia cell differentiation protein Mcl-1 (Homo sapiens, UniProt Q07820) (assay: Inhibition of Mcl-1 (unknown origin) by fluorescence polarization assay).
Sequence of Induced myeloid leukemia cell differentiation protein Mcl-1 (Q07820 whole entry): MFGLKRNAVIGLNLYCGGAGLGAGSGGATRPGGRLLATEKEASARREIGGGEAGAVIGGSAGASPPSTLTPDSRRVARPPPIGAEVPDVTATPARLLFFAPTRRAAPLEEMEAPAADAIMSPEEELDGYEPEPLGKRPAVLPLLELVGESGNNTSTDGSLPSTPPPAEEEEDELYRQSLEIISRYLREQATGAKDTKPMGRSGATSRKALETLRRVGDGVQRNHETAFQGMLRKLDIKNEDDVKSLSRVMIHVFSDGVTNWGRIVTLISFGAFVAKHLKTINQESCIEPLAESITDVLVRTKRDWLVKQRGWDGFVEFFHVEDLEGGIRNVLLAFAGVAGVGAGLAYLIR

Ki	SMILES
3.7 µM	COc1ccccc1N1C(=O)/C(=C/c2cccc(OCc3ccc(C(=O)O)cc3)c2)SC1=S
1.6 µM	O=C(O)c1ccc(COc2ccc(/C=C3\SC(=S)N(c4ccc(I)cc4)C3=O)cc2)cc1
0.29 µM	Cc1ccc(S(=O)(=O)NC(=O)[C@H](Cc2ccccc2)N2C(=O)/C(=C/c3ccc(-c4ccccc4)cc3)SC2=S)cc1
0.7 µM	O=C(O)c1ccc(COc2ccc(/C=C3\SC(=S)N(c4ccc(Br)cc4)C3=O)cc2)cc1
3.9 µM	COc1ccccc1N1C(=O)/C(=C/c2ccc(OCc3ccc(C(=O)O)cc3)cc2)SC1=S
3.2 µM	Cc1ccccc1N1C(=O)/C(=C/c2cccc(OCc3ccc(C(=O)O)cc3)c2)SC1=S
0.72 µM	Cc1cccc(C)c1N1C(=O)/C(=C/c2ccc(OCc3ccc(C(=O)O)cc3)cc2)SC1=S

SMILES	Ki
Cc1cc2c(C(C)C)c(O)c(O)c(C=O)c2c(O)c1-c1c(C)cc2c(C(C)C)c(O)c(O)c(C=O)c2c1O [GOSSYPOL]	0.31 µM

The compounds below were run on MDA-MB-231 (assay: Antiproliferative activity against human MDA-MB-231 cells by MTT assay).
Assay type: functional, cell-based

IC50	SMILES
> 30 µM	Cc1ccc(S(=O)(=O)NC(=O)[C@H](Cc2ccccc2)N2C(=O)/C(=C/c3ccc(-c4ccccc4)cc3)SC2=S)cc1
19.8 µM	O=C(O)c1ccc(COc2ccc(/C=C3\SC(=S)N(c4ccc(Br)cc4)C3=O)cc2)cc1
25.6 µM	Cc1cccc(C)c1N1C(=O)/C(=C/c2ccc(OCc3ccc(C(=O)O)cc3)cc2)SC1=S

SMILES	IC50
Cc1cc2c(C(C)C)c(O)c(O)c(C=O)c2c(O)c1-c1c(C)cc2c(C(C)C)c(O)c(O)c(C=O)c2c1O [GOSSYPOL]	4.8 µM

What follows are compounds tested on K562 (assay: Antiproliferative activity against human K562 cells by MTT assay).
Assay type: functional, cell-based

IC50	SMILES
32.8 µM	Cc1ccc(S(=O)(=O)NC(=O)[C@H](Cc2ccccc2)N2C(=O)/C(=C/c3ccc(-c4ccccc4)cc3)SC2=S)cc1
43.8 µM	O=C(O)c1ccc(COc2ccc(/C=C3\SC(=S)N(c4ccc(Br)cc4)C3=O)cc2)cc1
46.6 µM	Cc1cccc(C)c1N1C(=O)/C(=C/c2ccc(OCc3ccc(C(=O)O)cc3)cc2)SC1=S

SMILES	IC50
Cc1cc2c(C(C)C)c(O)c(O)c(C=O)c2c(O)c1-c1c(C)cc2c(C(C)C)c(O)c(O)c(C=O)c2c1O [GOSSYPOL]	7.31 µM

These compounds were tested on PC-3 (assay: Antiproliferative activity against human PC3 cells by MTT assay).
Assay type: functional, cell-based

IC50	SMILES
> 30 µM	Cc1ccc(S(=O)(=O)NC(=O)[C@H](Cc2ccccc2)N2C(=O)/C(=C/c3ccc(-c4ccccc4)cc3)SC2=S)cc1
18.9 µM	O=C(O)c1ccc(COc2ccc(/C=C3\SC(=S)N(c4ccc(Br)cc4)C3=O)cc2)cc1
25.8 µM	Cc1cccc(C)c1N1C(=O)/C(=C/c2ccc(OCc3ccc(C(=O)O)cc3)cc2)SC1=S

SMILES	IC50
Cc1cc2c(C(C)C)c(O)c(O)c(C=O)c2c(O)c1-c1c(C)cc2c(C(C)C)c(O)c(O)c(C=O)c2c1O [GOSSYPOL]	5.61 µM
